The term IC50 denotes the concentration that inhibits the measured activity by half.

SMILES strings stand for the structures. Counter-ions that a name gives are not always drawn.

The target in experiment [1] is MNK2 (Homo sapiens, UniProt Q9HBH9). Briefly: MNK biological enzyme assay (HTRF kinase assay), MNK2. The format is biochemical. Details: purchased ThermoFisher PV5607. The conditions noted are these: 1 ng/μl MNK2, 1 μM STK1 peptide, 100 μM ATP. The protocol:
(§1) A HTRF kinase assay kit (Cisbio, catalog number 62ST1PEB) was used to determine the MNK inhibitory activity of the compounds. All kinase reactions were performed in the reaction buffer (provided in the kit). The final MNK1 reaction involved 3 ng/ul recombinant MNK1 (ThermoFisher, PV6023), 1 μM MNK substrate peptide STK1 (provided in the kit), 100 μM ATP, and different concentrations of the inhibitory compounds of interest. The final MNK2 reaction involved 1 ng/μl recombinant MNK2 (ThermoFisher, PV5607), 1 μM MNK substrate peptide STK1 (provided in the kit), 100 μM ATP, and different concentrations of the inhibitory compounds of interest. The final DMSO concentration in each of the reactions was 1%.
(§2) The kinase reaction was performed in a final volume of 10 μl in a 384-well white flat-bottomed polystyrene plate. The MNK1/2 enzyme was pre-incubated with the compound and substrate peptide for 5 minutes, and then ATP was added thereto. After addition of ATP, the kinase reaction was incubated at 25° C. for 120 minutes or 60 minutes. The reaction was subsequently terminated by adding 5 μl of EU3+ substrate antibody detection reagent and 5 μl of XL665 detection reagent, and incubating for another 60 minutes. The luminescent signal was detected with an EnVision microplate reader counter (Perkin Elmer), and the signal from 10-point dilution series of the compounds was used to calculate the compound concentration (IC50) required to achieve 50% inhibition of enzyme activity.
(§3) In this respect, IC50 values which are less than 0.01 μM were marked as “+++”, which are from 0.01 to 0.1 μM were marked as “++”, and which are greater than 0.1 and up to 10.0 μM were marked as “+”, and NA meant “not detected”.
For orientation: TR-FRET usually uses a lanthanide donor and a delayed reading to cut background.

Experiment [2] addresses MNK1 (Homo sapiens, UniProt Q9BUB5). Kind of experiment: MNK biological enzyme assay (HTRF kinase assay), MNK1. Type of experiment: biochemical. Details: purchased ThermoFisher PV6023. The note with it: 3 ng/ul MNK1, 1 μM STK1 peptide, 100 μM ATP. The method, then:
as §1, §2, §3

In experiment [3] the test system is Phosphorylated eIF4E. Briefly: Intracellular peIF4E signaling assay. The format is cell-based. The conditions noted are these: 2 h; two hours incubation at 37° C.; read-out: peIF4E signaling cell assay IC50. The method, then:
Phosphorylated eIF4E was determined using CisBio peIF4E assay kit (CisBio, catalog number 64EF4PEG). The cells were plated in a 96-well cell culture plate in a volume of 90 μL, and the number of cells per well was 5*10^4. The compounds (10×) were subjected to 3-fold serial dilution, added to the cell plate in a volume of 10 μL with the final DMSO concentration being 1%, and incubated at 37° C. for two hours. The cell plate was centrifuged at 300 g for 5 minutes, and the cell supernatant was carefully removed. The cell plate was immediately added with 50 μL of cell lysis buffer […] and incubated at 25° C. with shaking for at least 30 minutes. After homogenization by pipetting, 16 μL of cell lysate was transferred from the 96-well cell culture plate to a 384-well small-volume microwell plate. According to the kit instruction, an antibody mixture solution was prepared with a detection buffer, and was added in a volume of 4 μL to the 384-well small-volume microwell plate containing the cell lysate. The plate was covered with a plate sealer, incubated overnight at 25° C., and was read for fluorescence emission at two different wavelengths (665 nm and 615 nm) on the EnVision microplate reader counter. The emission ratio was imported into a GraphPadPrism software to fit the compound concentration (IC50) required for 50% inhibition of enzyme activity.
In this respect, IC50 values which are less than 0.05 μM were marked as “+++”, which are from 0.05 to 1.0 μM were marked as “++”, and which are greater than 1.0 and up to 100 μM were marked as “+”, and NA meant “not detected”.

Chain of MNK2 (Q9HBH9 whole entry): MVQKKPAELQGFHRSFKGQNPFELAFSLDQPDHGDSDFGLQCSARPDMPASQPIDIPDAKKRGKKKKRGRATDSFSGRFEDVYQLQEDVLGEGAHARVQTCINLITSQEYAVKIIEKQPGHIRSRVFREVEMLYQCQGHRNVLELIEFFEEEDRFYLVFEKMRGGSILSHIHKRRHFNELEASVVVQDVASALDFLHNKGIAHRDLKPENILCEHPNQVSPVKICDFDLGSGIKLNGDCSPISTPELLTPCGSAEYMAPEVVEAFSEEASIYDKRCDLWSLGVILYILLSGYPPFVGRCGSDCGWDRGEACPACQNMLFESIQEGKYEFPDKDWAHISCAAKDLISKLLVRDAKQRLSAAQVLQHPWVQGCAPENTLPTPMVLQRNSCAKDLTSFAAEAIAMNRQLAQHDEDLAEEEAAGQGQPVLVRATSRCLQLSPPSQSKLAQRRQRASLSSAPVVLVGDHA
Chain of MNK1 (Q9BUB5 whole entry): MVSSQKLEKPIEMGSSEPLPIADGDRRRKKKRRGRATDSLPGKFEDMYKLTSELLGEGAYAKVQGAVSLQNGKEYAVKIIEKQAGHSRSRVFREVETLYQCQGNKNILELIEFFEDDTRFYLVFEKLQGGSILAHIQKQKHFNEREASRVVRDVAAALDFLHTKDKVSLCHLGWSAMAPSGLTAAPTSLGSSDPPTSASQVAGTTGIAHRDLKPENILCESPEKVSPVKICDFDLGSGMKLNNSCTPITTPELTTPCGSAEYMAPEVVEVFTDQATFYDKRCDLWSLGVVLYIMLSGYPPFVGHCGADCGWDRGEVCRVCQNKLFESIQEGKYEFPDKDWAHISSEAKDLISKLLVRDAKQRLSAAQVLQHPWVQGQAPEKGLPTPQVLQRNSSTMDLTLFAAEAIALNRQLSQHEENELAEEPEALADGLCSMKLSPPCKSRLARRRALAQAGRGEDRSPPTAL

With `CNc1cc2c(cn1)Cc1c(C)c3n(c(=O)c1N2)C1(CCCCC1)NC3=O` [Compound 22, 12′-methyl-8′-(methylamino)-6′,11′-dihydro-1′H-spiro[cyclohexane-1,3′-imidazo[1′,5′:1,6]pyrido[3,4-b][1,6]naphthopyridine]-1′,5′(2′H)-dione hydrochloride], the IC50 was 10 to 100 nM in experiment [1], 10 to 100 nM in experiment [2] and below 50 nM in experiment [3].

As to `Cc1c2n(c(=O)c3[nH]c4ccncc4c(=O)c13)C1(CCCCC1)NC2=O` [Compound 15, 12′-methyl-1′H-spiro[cyclohexane-1,3′-imidazo[1′,5′:1,6]pyrido[3,4-b][1,6]naphthyridine]-1′,5′,11′(2′H,6′H)-trione], the IC50 in experiment [3] was 50 to 1000 nM.

As to `Cc1c2c(c(=O)n3c1C(=O)NC3(C)c1cccc(F)c1)Nc1cc(N)ncc1C2` (centres unmarked) [Compound 10, hydrochloride], the figures for the 50% inhibitory concentration (IC50) in experiment [1], in experiment [2] and in experiment [3] were 10 to 100 nM, 10 to 100 nM and 50 to 1000 nM, respectively.

For `Cc1c2n(c(=O)c3[nH]c4cc(N)ncc4c(=O)c13)C1(CCCC1)NC2=O` [Compound 5, 8-amino-12-methyl-2H-spiro[cyclopentane-1,3-imidazo[1,5:1,6]pyridine[3,4-b][1,6]naphthyridine]-1,5,11(6H)-trione], the figures for the IC50 in experiment [1], in experiment [2] and in experiment [3] were below 10 nM, below 10 nM and below 50 nM, respectively.

For `Cc1c2c(c(=O)n3c1C(=O)NC3(C)c1cccc(Cl)c1)Nc1cc(N)ncc1C2` (centres unmarked) [Compound 14, 8-amino-3-(3-chlorophenyl)-3,12-dimethyl-2,3,6,11-tetrahydroimidazole[1′,5′:1,6]pyrido[3,4-b][1,6]naphthyridine-1,5-dione hydrochloride], the IC50 in experiment [3] was 50 to 1000 nM.

As to `Cc1c2c(c(=O)n3c1C(=O)NC3(C)c1ccccc1)Nc1cc(N)ncc1C2` (centres unmarked) [Compound 8, 8-amino-3,12-dimethyl-3-phenyl-2,3,6,11-tetrahydroimidazo[l′,5′:1,6]pyrido[3,4-b][1,6]naphthyridine-1,5-dione, hydrochloride], the results for the IC50 in experiment [2] and in experiment [3] were 10 to 100 nM and 50 to 1000 nM, respectively.

Consider `Cc1c2n(c(=O)c3[nH]c4cc(N)ncc4c(=O)c13)C(C)(c1ccccc1)NC2=O` (centres unmarked) [Compound 7, 8-amino-3,12-dimethyl-3-phenyl-2,3-dihydroimidazo[1′,5′:1,6]pyrido[3,4-B][1,6]naphthyridine-1,5,11(6H)-trione], for which the IC50 in experiment [1] was in the range of 10 to 100 nM; in experiment [2] it was 10 to 100 nM; in experiment [3], 1000 to 100000 nM.

With `Cl.[2H]C1([2H])c2cnc(N)cc2Nc2c1c(C)c1n(c2=O)C2(CCCCC2)NC1=O` [Compound 20, 8′-amino-12′-methyl-6′,11′-dihydro-2′H-spiro[cyclohexane-1,3′-imidazo[1′,5′:1,6]pyrido[3,4-b][1,6]naphthyridine]-1′,5′-dione-11′,11′-d2 hydrochloride], the results for the IC50 in experiment [1], in experiment [2] and in experiment [3] were below 10 nM, 10 to 100 nM and below 50 nM, respectively.

As to `Cc1c2c(c(=O)n3c1C(=O)NC31CCCCC1)Nc1cc(NC(=O)C(C)C)ncc1C2` [Compound 24, N-(12methyl-1,5-dioxo-1,5,6,11-tetrahydro-2H-spiro[cyclohexane-1,3-imidazole[1,5:1,6]pyrido[3,4b][1,6]naphthyridine]-8-yl)isobutyramide], the IC50 in experiment [1] is below 10 nM; in experiment [2], below 10 nM; in experiment [3] it was below 50 nM.

Turning to `Cc1c2n(c(=O)c3[nH]c4cc(N)ncc4c(=O)c13)C1(CCN(C)CC1)NC2=O` [Compound 17, 8-amino-1′,12-dimethyl-2H-spiro[imidazo[1′,5′:1,6]pyrido[3,4-B][1,6]naphthyridine-3,4′-piperidine]-1,5,11(6H)-trione], the IC50 in experiment [3] is 1000 to 100000 nM.

Regarding `Cc1cc2[nH]c3c(=O)n4c(c(C)c3c(=O)c2cn1)C(=O)NC41CCCCC1` [Compound 11, 8′,12′-dimethyl-1′H-spiro[cyclohexane-1,3′-imidazo[1′,5′:1,6]pyrido[3,4-b][1,6]naphthyridine]-1′,5′,11′(2′H,6′H)-trione], the IC50 in experiment [3] lay within 1000 to 100000 nM.

Consider `Cc1cc2c(cn1)Cc1c(C)c3n(c(=O)c1N2)C1(CCCCC1)NC3=O` [Compound 12, 8,12-dimethyl-6,11-dihydro-1H-spiro[cyclohexane-1,3-imidazo[1,5:1,6]pyrido[3,4-b][1,6]naphthyridine]-1,5(2H)-dione hydrochloride], for which, in experiment [3], the IC50 was in the range of 50 to 1000 nM.

As for `Cc1c2n(c(=O)c3[nH]c4cc(N)ncc4c(=O)c13)C(C)(c1cccc(F)c1)NC2=O` (centres unmarked) [Compound 9, 8-amino-3-(3-fluorophenyl)-3,12-dimethyl-2,3-dihydroimidazo[1′,5′:1,6]pyrido[3,4-b][1,6]naphthopyridin-1,5,11(6H)-trione], the IC50 in experiment [2] was 10 to 100 nM; in experiment [3], 50 to 1000 nM.

As to `Cc1c2c(c(=O)n3c1C(=O)NC31CCCCC1)Nc1cc(NC(=O)C3CCC3)ncc1C2` [Compound 27], the IC50 in experiment [1] is below 10 nM; in experiment [2] it was 10 to 100 nM; in experiment [3], below 50 nM.

Turning to `Cc1c2c(c(=O)n3c1C(=O)NC31CCCC1)Nc1cc(N)ncc1C2` [Compound 6, 8′-amino-12′-methyl-6′,11′-dihydro-2′H-spiro[cyclopentane-1,3′-imidazo[1′,5′:1,6]pyrido[3,4-b][1,6]naphthyridine]-1′,5′-dione], the values for the concentration for half-maximal inhibition (IC50) in experiment [1], in experiment [2] and in experiment [3] were below 10 nM, 10 to 100 nM and below 50 nM, respectively.

As to `Cc1c2c(c(=O)n3c1C(=O)NC31CCCCC1)Nc1ccncc1C2` [Compound 16, 12-methyl-6,11-dihydro-1H-spiro[cyclohexane-1,3-imidazo[1,5:1,6]pyrido[3,4-b][1,6]naphthyridine]-1,5(2H)-dione hydrochloride], the IC50 in experiment [1] was below 10 nM; in experiment [2], 10 to 100 nM; in experiment [3] it was below 50 nM.

With `Cc1c2n(c(=O)c3[nH]c4cc(N)ncc4c(=O)c13)C1(CCCCC1)NC2=O` [Compound 1, 8′-amino-12′-methyl-2′H-spiro[cyclohexane-1,3′-imidazo[1′,5′:1,6]pyrido[3,4-b][1,6]naphthyridine]-1′,5′,11′(6′H)-trione], the IC50 is 10 to 100 nM in experiment [1], 10 to 100 nM in experiment [2] and below 50 nM in experiment [3].

For the molecule `Cc1c2c(c(=O)n3c1C(=O)NC3(C)C)Nc1cc(N)ncc1C2` [Compound 4, 8-amino-3,3,12-trimethyl-2,3,6,11-tetrahydroimidazo[1,5′:1.6]pyrido[3,4-b][1,6]naphthyridine derivative-1,5-dione hydrochloride], the results for the IC50 in experiment [1], in experiment [2] and in experiment [3] were 10 to 100 nM, 10 to 100 nM and 50 to 1000 nM, respectively.

Take `Cc1c2c(c(=O)n3c1C(=O)NC31CCN(C)CC1)Nc1cc(N)ncc1C2` [Compound 18, 8-amino-1′,12-dimethyl-6,11-dihydro-2H-spiro[imidazo[1′,5′:1,6]pyrido[3,4-b][1,6]naphthyridine-3,4′-piperidine]-1,5-dione]: in experiment [3], the IC50 was in the range of 50 to 1000 nM.

As for `C=CC1(CCO)NC(=O)c2c(C)c3c(=O)c4cnc(N)cc4[nH]c3c(=O)n21` (centres unmarked) [Compound 19, 8-amino-3-(2-hydroxyethyl)-12-methyl-3-ethenyl-2,3-dihydroimidazo[1′,5′:1,6]pyrido[3,4-b][1,6]naphthyridine-1,5,11(6H)-trione], the IC50 in experiment [3] lay within 1000 to 100000 nM.
